Experimental data: patent publication US20130171263A1, “Snake Powder Extract For Treatment Of Cancer” (priority 2006, published 2013)

Key:
[1] = test system: tumor cell lines (K562, Raji, Jurkatt, CEM, MCF-7, MDA-MB-231, MD-MB-468, LNCaP, PC-3, HT-29, HCT-116, PANC-1, GL10-1); test: Tumor cell proliferation, oxygen biosensor; type: cell-based; details: DMSO, ethanol and PBS solutions, at least 24 hour incubation, FIGS. 6-8
Text: Referring to FIGS. 6, 7, and 8 the effect of snake extract on tumor cell proliferation utilizing the DMSO, ethanol, and PBS solutions, is respectively analyzed. The methodology used to analyze tumor cell proliferation was oxygen biosensor. With this methodology culture plates are coated with an oxygen sensitive fluorescent compound embedded in a gas-permeable and hydrophobic matrix permanently attached to the bottom of a multi-well plate. The amount of fluorescence correlates directly to the rate of oxygen consumption in the well, providing a signal that can be directly correlated to cell growth.
In the experiments in FIGS. 1-8, the experiments were done with an effective amount of each analyzed target cancer cell lines dissolved within each snake extract solution measured as noted in each Figure for at least a 24 hour incubation period.
The following cell lines were utilized in the tests listed above: • Leukemia/Lymphoma: K562, Raji, Jurkatt, CEM; • Breast Carcinoma MCF-7, MDA-MB-231, MD-MB-468; • Prostate Carcinoma LNCaP, PC-3; • Colorectal Carcinoma: HT-29, HCT-116; • Pancreatic Carcinoma: PANC-1; • Gliobastaoma: GL10-1.

[2] = test system: Artemia salina; test: Brine shrimp lethality assay; type: in vivo; details: 24 h, nauplii
Procedure: The eggs of brine shrimp, Airtime salina (Leach), are used in monitoring bioactive compounds. The eggs are readily available in pet shops at low cost and remain viable for years in the dry state. The brine shrimp assay has advantages of being rapid (24 hrs), inexpensive, and simple. No aseptic techniques are required. It easily utilizes a large number of organisms for statistical validation and requires no special equipment and a relatively small amount of sample.
The assay was carried out with Artemia salina eggs. 50 mg of Artemia salina eggs in a beaker containing sea salt (6 g), yeast (0.9 mg) and distilled water (150 ml) were incubated at 27-28° C. for 24 hrs. The newly hatched nauplii were concentrated. From this volume, aliquots of 50 μl (approximately 18-20 nauplii) were pipette directly into a 24 well plates containing sea water (sw), −ve control (DMSO+sw), +ve control (emetine) or different concentrations of extracts (62.5-500 μg/ml). Assay was carried out in triplicate. The plates were sealed and incubated at 27-28° C. for 24 h. At the end of the 24-h incubation period, the content of each well was pipette into a watch glass individually. Survival was assessed by scoring the number of dead nauplii using a microscope. Once counts of dead nauplii had been taken, 0.5 ml of methanol was added to kill all remaining nauplii. The contents of each well were then recorded and result tabulated as (X/Y; where X=number dead and Y=number of dead and alive).

[3] = test system: MDA-MB-435 tumor masses; details: cited from earlier work
[4] = test system: breast cancer cells; details: cited from earlier work
[5] = test system: B16F10 solid tumor; details: cited from earlier work
[6] = test system: angiogenesis; details: elicited by basic fibroblast growth factor; cited from earlier work

CC[C@@]1(O)C(=O)OCc2c1cc1n(c2=O)Cc2cc3ccccc3nc2-1 [Camptothecin]
inhibiting cell proliferation [1]: more effective at inhibiting cell proliferation of different cell lines than the snake powder extract

CC[C@H]1CN2CCc3cc(OC)c(OC)cc3[C@@H]2C[C@@H]1C[C@H]1NCCc2cc(OC)c(OC)cc21 [Emetine]
% mortality ([2]; concentration 62.5 (extracts 62.5-500 μg/ml)): 58.2%
% mortality ([2]; concentration 125 (extracts 62.5-500 μg/ml)): 100%
% mortality ([2]; concentration 250 (extracts 62.5-500 μg/ml)): 100%
% mortality ([2]; concentration 500 (extracts 62.5-500 μg/ml)): 100%

Contortrostatin
angiogenesis induced by breast cancer ([3]; immunohistochemical quantitation of vascular endothelial cells in tumor tissue): inhibiting angiogenesis
inhibited growth of tumor ([3]; injected daily at 5 microgram per mouse): 74%
cytotoxicity to cancer cells [4]: not cytotoxic
proliferation of the breast cancer cells in vitro [4]: does not inhibit proliferation

Rhodostomin
survival ([5]; C57BL/6 mice): prolonged survival
tumor growth ([5]; subcutaneously inoculated B16F10 solid tumor): suppressed tumor growth
angiogenesis [6]: inhibit angiogenesis
